Six molecules from paper PMC10687260, “1,3-Diphenylureido hydroxamate as a promising scaffold for generation of potent antimalarial histone deacetylase inhibitors” (Scientific Reports, 2023) can be followed below.

The test system of one data set is P. falciparum 3D7. The experiment in a line: Antiplasmodial SYBR Green I proliferation assay, P. falciparum 3D7. The data set is classed as cell-based, Plasmodium falciparum. To be noted: Plasmodium falciparum, 3D7, 96 h, 96 h; values in brackets 95% confidence intervals; read-out: IC50 Pf3D7. An outline of the steps:
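SYBR Green I DNA-content proliferation assay on P. falciparum 3D7 and Dd2 in human O+ erythrocytes. Fluorescence after 1 h lysis with 0.02% SYBR Green I, scaled 0–100% against untreated parasites; curves by non-linear regression on means of three independent triplicate experiments.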

The next data set has as its system HepG2 cells. The experiment in a line: Cytotoxicity in human HepG2 cells (WST-1). The data set is classed as cell-based. Particulars: Homo sapiens, HepG2; 48 h, WST-1; read-out: IC50 HepG2. An outline of the steps: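 HepG2 cells (10^4/well, seeded overnight) were exposed to two-fold serial compound dilutions in fresh medium, then given WST-1 for 4 h. Formazan absorbance at 450 nm, with 630 nm background, was scaled 0–100% against untreated and DMSO controls.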
Background: Formazan colour is commonly taken as a measure of viable cells.

Data set [1] in a line: Stability in human hepatic microsomes. Particulars: for half-life at 1 µM: 1 mg/mL hepatic microsomes, 1 µM compound, read-out: Half-life t1/2 Human; for microsomal CLint at 1 µM: read-out: Intrinsic clearance Clint Human. In kind it is in vitro ADME. An excerpt: (§1) DMPK evaluation. […].
A further data set concerns the target T1, CYP450 2C9 (Homo sapiens, UniProt P11712).
T1 construct: 10 μM compound was incubated with human liver microsomes and selective marker substrates; from tissue; host or cells: human liver microsomes
The experiment in a line: CYP450 inhibition in human liver microsomes, 2C9. In kind it is in vitro ADME. Particulars: 10 µM. In general terms: Microsomes from liver hold many membrane-bound enzymes, among them those of drug oxidation.

A short description of data set [2]: Stability in mouse hepatic microsomes. In kind it is in vitro ADME. Particulars: for half-life at 1 µM: 1 mg/mL hepatic microsomes, 1 µM compound, read-out: Half-life t1/2 Mouse; for microsomal CLint at 1 µM: read-out: Intrinsic clearance Clint Mouse.
From the text: as §1

The target of another data set is T2, CYP450 2D6 (Homo sapiens, UniProt P10635).
T2 construct: 10 μM compound was incubated with human liver microsomes and selective marker substrates; from tissue; host or cells: human liver microsomes
T2 sequence (P10635 whole entry): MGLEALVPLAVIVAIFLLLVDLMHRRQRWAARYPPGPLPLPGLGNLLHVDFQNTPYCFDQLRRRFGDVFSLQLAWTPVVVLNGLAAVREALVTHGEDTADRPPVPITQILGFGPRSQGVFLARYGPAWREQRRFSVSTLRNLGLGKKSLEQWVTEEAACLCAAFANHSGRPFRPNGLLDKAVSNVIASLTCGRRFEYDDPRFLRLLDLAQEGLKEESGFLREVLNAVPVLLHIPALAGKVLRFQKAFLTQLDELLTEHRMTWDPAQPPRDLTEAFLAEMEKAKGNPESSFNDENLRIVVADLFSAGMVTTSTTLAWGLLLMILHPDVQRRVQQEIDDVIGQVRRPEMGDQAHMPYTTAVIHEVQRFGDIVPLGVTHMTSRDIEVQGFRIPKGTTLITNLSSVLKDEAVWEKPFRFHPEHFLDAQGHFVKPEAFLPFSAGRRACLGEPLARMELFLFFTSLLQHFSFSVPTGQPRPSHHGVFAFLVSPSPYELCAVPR
The experiment in a line: CYP450 inhibition in human liver microsomes, 2D6. In kind it is in vitro ADME. To be noted: 10 µM.

Another data set has as its target T3, HDAC8 (Homo sapiens, UniProt Q9BY41).
T3 construct: made in house
T3 sequence (Q9BY41 1-377): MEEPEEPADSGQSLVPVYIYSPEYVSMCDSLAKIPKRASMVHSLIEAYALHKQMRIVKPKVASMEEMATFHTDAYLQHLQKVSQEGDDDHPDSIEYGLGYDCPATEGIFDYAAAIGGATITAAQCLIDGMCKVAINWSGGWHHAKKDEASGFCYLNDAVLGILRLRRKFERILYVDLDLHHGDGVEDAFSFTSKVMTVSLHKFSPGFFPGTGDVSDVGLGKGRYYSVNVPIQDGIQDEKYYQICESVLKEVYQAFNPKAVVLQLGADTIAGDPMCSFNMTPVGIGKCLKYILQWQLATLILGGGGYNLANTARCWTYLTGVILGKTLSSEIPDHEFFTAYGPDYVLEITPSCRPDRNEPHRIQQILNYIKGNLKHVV
The experiment in a line: In vitro HDAC enzymatic assay, HDAC8. Particulars: mean ± SD. In kind it is biochemical. On the procedure:
In vitro HDAC enzymatic assays. Recombinant human HDAC1 and HDAC6 were purchased from ENZO Life Sciences AG (Lausen, CH) whereas HDAC8 was produced as described before. In vitro testing of the inhibitors in an enzymatic assay was carried out as described in previous publications[32],[33]. For HDAC1 a fluorogenic peptide derived from p53 (Ac-RHKK(Acetyl)-AMC) was used. For HDAC6, the substrate (Abz-SRGGK(thio-TFA)FFRR-NH2) was used as described before.

The term IC50 denotes the concentration at which inhibition is half-maximal.

T1 sequence (P11712 whole entry): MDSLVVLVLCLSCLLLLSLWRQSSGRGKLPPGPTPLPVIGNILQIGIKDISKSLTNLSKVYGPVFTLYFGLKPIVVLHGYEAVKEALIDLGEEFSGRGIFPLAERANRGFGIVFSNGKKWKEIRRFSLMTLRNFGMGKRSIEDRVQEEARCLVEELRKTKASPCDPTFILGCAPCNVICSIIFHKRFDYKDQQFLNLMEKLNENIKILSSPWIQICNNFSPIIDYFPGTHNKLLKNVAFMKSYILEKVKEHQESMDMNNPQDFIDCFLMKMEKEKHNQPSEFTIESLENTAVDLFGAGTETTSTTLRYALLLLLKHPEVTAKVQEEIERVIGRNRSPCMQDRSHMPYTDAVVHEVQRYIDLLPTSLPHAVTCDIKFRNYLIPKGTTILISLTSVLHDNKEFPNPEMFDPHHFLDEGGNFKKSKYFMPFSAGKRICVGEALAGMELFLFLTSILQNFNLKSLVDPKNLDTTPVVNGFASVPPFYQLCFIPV

Take `O=C(Nc1ccccc1)Nc1ccc(C(=O)NO)cc1` [Compound 8a, N-hydroxy-4-(3-phenylureido)bezamide]: the IC50 in the data set with P. falciparum 3D7 was 0.56 µM; with HepG2 cells it was 56 µM; against HDAC8, 0.0935 ± 0.0053 µM. Also, the half-life at 1 µM in data set [1] is over 120 min; in data set [2] it was 10.1 min. Also, the microsomal CLint at 1 µM in data set [1] is under 6 µL/min/mg; in data set [2], 69 µL/min/mg. Further, at CYP450 2C9, the “CYP450% inhibition @ 10 µM 2C9” value is on record as “* (Inhibition < 10%)”. Further, the “CYP450% inhibition @ 10 µM 2D6” value at CYP450 2D6 is “* (Inhibition < 10%)”.

For `COc1ccc(NC(=O)Nc2ccc(/C=C/C(=O)NO)cc2)cc1` [Compound 6c, (E)-N-hydroxi-3-(4-(3-(4-methoxyphenyl)ureido)phenyl)acrylamide], the IC50 turned out to be 1.03 µM in the data set with P. falciparum 3D7, 13.3 µM in the data set with HepG2 cells and 0.0637 ± 0.0042 µM at HDAC8. Further, the half-life at 1 µM worked out at 39.6 min in data set [1] and 4.4 min in data set [2]. The figures for the microsomal CLint at 1 µM in data set [1] and in data set [2] were 17 µL/min/mg and 158 µL/min/mg, respectively. On CYP450 2C9, the “CYP450% inhibition @ 10 µM 2C9” value is 18%. Moreover, on CYP450 2D6, the “CYP450% inhibition @ 10 µM 2D6” value is reported as “*^b (Inhibition < 10%)”.

As for `COc1ccc(NC(=O)Nc2ccc(C(=O)NO)cc2)cc1` [Compound 8c, N-hydroxy-4-(3–4(-methoxyphenyl)ureido)benzamide], the IC50 was 0.74 µM in the data set on P. falciparum 3D7, over 200 µM in the data set with HepG2 cells and 0.136 ± 0.0082 µM on HDAC8. Also, the figures for the half-life at 1 µM in data set [1] and in data set [2] were 98.8 min and 2.5 min, respectively. Further, the microsomal CLint at 1 µM came out at 7 µL/min/mg in data set [1] and 281 µL/min/mg in data set [2]. Besides, at CYP450 2C9, the “CYP450% inhibition @ 10 µM 2C9” value is given as “* (Inhibition < 10%)”. Further, the “CYP450% inhibition @ 10 µM 2D6” value on CYP450 2D6 was “* (Inhibition < 10%)”.

Take `O=C(Nc1ccc(Cl)cc1)Nc1ccc(C(=O)NO)cc1` [Compound 8b, 4-(3-(4-chlorophenyl)ureido)-N-hydroxybenzamide]: the IC50 was 1.31 µM in the data set on P. falciparum 3D7, over 200 µM in the data set on HepG2 cells and 0.0851 ± 0.0096 µM against HDAC8. Further, the half-life at 1 µM in data set [1] came out at 66 min; in data set [2], 4 min. For the same molecule, the microsomal CLint at 1 µM in data set [1] was determined as 10 µL/min/mg; in data set [2], 173 µL/min/mg. The “CYP450% inhibition @ 10 µM 2C9” value on CYP450 2C9 is listed as “* (Inhibition < 10%)”. Also, the “CYP450% inhibition @ 10 µM 2D6” value at CYP450 2D6 is listed as “* (Inhibition < 10%)”.

Turning to `COc1ccc(NC(=O)Nc2ccc(CCC(=O)NO)cc2)cc1` [Compound 7c, N-hydroxy-3-(4-(3-(4-methoxyphenyl)ureido)phenyl)propanamide], the IC50 in the data set on P. falciparum 3D7 was 5.82 µM; in the data set with HepG2 cells, over 50 µM; on HDAC8 it was 0.362 ± 0.0227 µM. Besides, the half-life at 1 µM was over 120 min in data set [1] and 4.1 min in data set [2]. Besides, the microsomal CLint at 1 µM in data set [1] was under 6 µL/min/mg; in data set [2], 169 µL/min/mg. In addition, the “CYP450% inhibition @ 10 µM 2C9” value at CYP450 2C9 is listed as “* (Inhibition < 10%)”. The “CYP450% inhibition @ 10 µM 2D6” value at CYP450 2D6 was “* (Inhibition < 10%)”.

`O=C(Nc1ccc(C(=O)NO)cc1)Nc1ccc([N+](=O)[O-])cc1` [Compound 8d, N-hydroxy-4-(3-(4-nitrophenyl)ureido)benzamide]: the IC50 in the data set on P. falciparum 3D7 is 0.55 µM; with HepG2 cells, 54 µM; on HDAC8, 0.0681 ± 0.0068 µM. For the same molecule, the half-life at 1 µM in data set [1] was over 120 min; in data set [2] it was 13.8 min. Also, the microsomal CLint at 1 µM was under 6 µL/min/mg in data set [1] and 50 µL/min/mg in data set [2]. For the same molecule, at CYP450 2C9, the “CYP450% inhibition @ 10 µM 2C9” value was “* (Inhibition < 10%)”. For the same molecule, at CYP450 2D6, the “CYP450% inhibition @ 10 µM 2D6” value was “* (Inhibition < 10%)”.
